# Values joined by “and” are separate entries in the source; they are usually repeats but may differ in a detail not shown here. Equal values may be shown once.
# Assays:
# Experiment in all cases: ≥ marks a high value that may be exact or a test limit, other limits are often not marked, values filed in µg/mL are converted to µM
# [1] = system: Carnobacterium maltaromaticum UI49
# [2] = system: Lacticaseibacillus casei NCDO 2713
# [3] = system: Lacticaseibacillus casei subsp. casei NCDO 161
# [4] = system: Lactiplantibacillus plantarum UI50
# [5] = system: Latilactobacillus curvatus 89
# [6] = system: Latilactobacillus sakei 706
# [7] = system: Latilactobacillus sakei NCDO 2714
# [8] = system: Pediococcus acidilactici CH
# [9] = system: Pediococcus pentosaceus NCDO 990
# [10] = system: Pediococcus pentosaceus Pac1.0
# [11] = system: Weissella viridescens NCDO 1655
# [12] = system: Acinetobacter baumannii ATCC BAA-747
# [13] = system: Bacillus subtilis IFO 3134
# [14] = system: Enterobacter cloacae BCRC 10401
# [15] = system: Enterococcus faecium ATCC 700221
# [16] = system: Escherichia coli ATCC 25922
# [17] = system: Escherichia coli BCRC 10675
# [18] = system: Escherichia coli IFO 12734
# [19] = system: Klebsiella aerogenes BCRC 10370
# [20] = system: Klebsiella oxytoca BCRC 13985
# [21] = system: Klebsiella pneumoniae ATCC 700603
# Lactococcus garvieae = system: Lactococcus garvieae
# [22] = system: Listeria monocytogenes BCRC 14845
# [23] = system: Pseudomonas aeruginosa ATCC 27583
# [24] = system: Pseudomonas aeruginosa BCRC 10944
# [25] = system: Pseudomonas aeruginosa IFO 12582
# [26] = system: Staphylococcus aureus ATCC 43300
# [27] = system: Staphylococcus aureus BCRC 10780
# [28] = system: Staphylococcus aureus BCRC 10781
# [29] = system: Staphylococcus aureus IFO 12732
# [30] = system: Staphylococcus xylosus BCRC 12930
# [31] = system: Streptococcus equinus BCRC 14729
# Streptococcus iniae = system: Streptococcus iniae
# [32] = system: Vibrio alginolyticus BCRC 12829
# Vibrio alginolyticus = system: Vibrio alginolyticus
# [33] = system: Vibrio anguillarum serotype O1
# Vibrio harveyi = system: Vibrio harveyi
# [34] = system: Vibrio parahaemolyticus BCRC 10806
# Vibrio parahaemolyticus = system: Vibrio parahaemolyticus
# [35] = system: Yersinia enterocolitica BCRC 13999
# [36] = system: Bacillus subtilis ATCC 62037
# [37] = system: Candida albicans ATCC 10231
# [38] = system: Cryptococcus neoformans ATCC 34881
# [39] = system: Escherichia coli ATCC 27325
# [40] = system: Pseudomonas putida ATCC 17426
# [41] = system: Saccharomyces cerevisiae ATCC 44774
# [42] = system: Salmonella enterica subsp. enterica serovar Enteritidis ATCC 13076
# [43] = system: Staphylococcus aureus ATCC 15752
# [44] = system: Streptococcus mutans ATCC 25175
# Pseudomonas aeruginosa = system: Pseudomonas aeruginosa
# [45] = system: Staphylococcus aureus ATCC 6538P
# [46] = system: Staphylococcus aureus KO-4
# [47] = system: Trichophyton mentagrophytes IFO 5466
# [48] = system: Trypanosoma brucei brucei GUT Tat3.1
compound,measurement,setting,value
CC[C@H](C)[C@H](NC(=O)[C@H](C)NC(=O)[C@H](CCCNC(=N)N)NC(=O)CNC(=O)[C@H](C)NC(=O)[C@H](CCC(=O)O)NC(=O)CNC(=O)[C@H](CC(=O)O)NC(=O)[C@H](Cc1ccc(O)cc1)NC(=O)[C@H](Cc1ccccc1)NC(=O)CNC(=O)[C@H](CCCCN)NC(=O)[C@H](CCCNC(=N)N)NC(=O)[C@H](CC(C)C)NC(=O)[C@H](CO)NC(=O)[C@H](CO)NC(=O)[C@H](Cc1c[nH]c2ccccc12)NC(=O)[C@H](Cc1ccccc1)NC(=O)[C@H](CC(N)=O)NC(=O)[C@H](CCCCN)NC(=O)[C@H](Cc1c[nH]c2ccccc12)NC(=O)[C@H](C)NC(=O)CN)C(=O)N[C@@H](CCCNC(=N)N)C(=O)N[C@@H](CCCNC(=N)N)C(=O)O [GAWKNFWSSLRKGFYDGEAGRAIRR],MIC,[1],0.4 µM
same,MIC,[2],0.4 µM
same,MIC,[3],0.4 µM
same,MIC,[4],0.4 µM
same,MIC,[5],0.4 µM
same,MIC,[6],0.4 µM
same,MIC,[7],0.05 µM
same,MIC,[8],0.4 µM
same,MIC,[9],0.4 µM
same,MIC,[10],0.05 µM
same,MIC,[11],0.005 µM
CC[C@H](C)[C@H](NC(=O)CN)C(=O)NCC(=O)N[C@@H](CCCCN)C(=O)N[C@@H](Cc1ccccc1)C(=O)N[C@@H](CC(C)C)C(=O)N[C@@H](Cc1cnc[nH]1)C(=O)N[C@@H](CO)C(=O)N[C@@H](C)C(=O)N[C@@H](CCCCN)C(=O)N[C@@H](CCCCN)C(=O)N[C@@H](Cc1c[nH]c2ccccc12)C(=O)NCC(=O)N[C@@H](CCCCN)C(=O)N[C@@H](C)C(=O)N[C@@H](Cc1ccccc1)C(=O)N[C@H](C(=O)NCC(=O)N[C@@H](CCC(=O)O)C(=O)N[C@H](C(=O)N[C@@H](CCSC)C(=O)N[C@@H](CC(N)=O)C(=O)N[C@@H](CO)C(N)=O)[C@@H](C)CC)C(C)C [GIGKFLHSAKKWGKAFVGEIMNS],MIC,[12],8 µM
same,MIC,[13],9.98 µM
same,MIC,[14],12.8 µM
same,MIC,[15],16 µM
same,MIC,[16],8 µM
same,MIC,[17],25.5 µM
same,MIC,[18],4.79 µM
same,MIC,[19],≥ 51.1 µM
same,MIC,[20],25.5 µM
same,MIC,[21],64 µM
same,MIC,Lactococcus garvieae,12.8 µM
same,MIC,[22],≥ 51.1 µM
same,MIC,[23],≥ 32 µM
same,MIC,[24],25.5 µM
same,MIC,[25],9.98 µM
same,MIC,[26],> 128 µM
same,MIC,[27],≥ 51.1 µM
same,MIC,[28],≥ 51.1 µM
same,MIC,[29],9.98 µM
same,MIC,[30],≥ 51.1 µM
same,MIC,[31],≥ 51.1 µM
same,MIC,Streptococcus iniae,≥ 51.1 µM
same,MIC,[32],≥ 51.1 µM
same,MIC,Vibrio alginolyticus,≥ 51.1 µM
same,MIC,[33],3.19 µM
same,MIC,Vibrio harveyi,≥ 51.1 µM
same,MIC,[34],≥ 51.1 µM
same,MIC,Vibrio parahaemolyticus,1.6 µM
same,MIC,[35],≥ 51.1 µM
CC(C)[C@H](NC(=O)[C@H](CCCCN)NC(=O)CNC(=O)CNC(=O)[C@H](CCC(N)=O)NC(=O)[C@H](CCCCN)NC(=O)CNC(=O)[C@H](CCCN=C(N)N)NC(=O)CNC(=O)[C@@H](N)CCCCN)C(=O)N[C@@H](CCCN=C(N)N)C(=O)N[C@@H](C)C(=O)N[C@@H](CCCCN)C(=O)N[C@@H](C)C(=O)O [KGRGKQGGKVRAKA],MIC,[36],≥ 44.4 µM
same,MIC,[37],> 88.8 µM
same,MIC,[38],≥ 88.8 µM
same,MIC,[39],≥ 88.8 µM
same,MIC,[40],≥ 44.4 µM
same,MIC,[41],≥ 88.8 µM
same,MIC,[42],≥ 88.8 µM
same,MIC,[43],≥ 88.8 µM
same,MIC,[44],≥ 88.8 µM
CC[C@H](C)[C@H](NC(=O)[C@H](CCCN=C(N)N)NC(=O)[C@H](CC(C)C)NC(=O)[C@H](CCCN=C(N)N)NC(=O)[C@H](CC(C)C)NC(=O)[C@@H](N)CCCN=C(N)N)C(=O)NCC(=O)N[C@@H](CCCN=C(N)N)C(=O)N[C@@H](CCCN=C(N)N)C(N)=O [RLRLRIGRR],MIC,Pseudomonas aeruginosa,669 µM
same,MIC,[45],0.837 µM and 1.67 µM
same,MIC,[46],≥ 502 µM
same,MIC,[47],≥ 41.8 µM
same,MIC,[48],≥ 500 µM
